From patent US20240423215A1, “COMPOSITION FOR COATING PLANT SEED” (priority 2022, published 2024)

Experiments:
Type in all cases: in vivo
rice = test: Cultivation of rice from coated seeds under non-stress conditions (Example 7); details: 3 weeks after seeding
Protocol: Rice seeds (100 g; the variety: Emimaru) were coated with 800 μl of a coating solution containing tryptophan, oxidized glutathione, polyvinyl alcohol, and a coloring dye in water using a coater (SATEC). Coating was performed using either or both of tryptophan in an amount of 0 g, 2.25 g, or 5 g and oxidized glutathione in an amount of 0 g or 75 g per ton of seeds.
Culture soil was filled into 12-cm vinyl pots, and the coated rice seeds were seeded at 5 grains/pot. Cultivation was performed in a glass greenhouse, and the fresh weight of the aboveground part was inspected 21 days after seeding. The test was repeated 6 times, and the average was determined.
(§1) The measured fresh weight of the aboveground part of plants in groups each treated with different amounts of tryptophan and oxidized glutathione was indicated as the rate of change (%), relative to the fresh weight of the aboveground part of plants in the test group (control group) treated with a coating solution not containing tryptophan or oxidized glutathione.

wheat [1] = test: Cultivation of wheat from coated seeds under non-stress conditions (Example 3); details: 2 weeks after seeding, fresh weight of aboveground part
Protocol: Wheat seeds (100 g, Quintus) were coated with 800 μl of a coating solution containing tryptophan, oxidized glutathione, polyvinyl alcohol, and a coloring dye in water using a coater (SATEC). Coating was performed using either or both of tryptophan in an amount of 0 g, 0.01 g, 0.25 g, 5 g, or 10 g and oxidized glutathione in an amount of 0 g, 6 g, or 300 g per ton of seeds.
Culture soil was filled into a 96-well cell tray, the coated wheat seeds were seeded at 1 grain/cell, and inspection was performed 2 weeks after seeding. The height and the fresh weight of the aboveground part were measured, and the density (the fresh weight of the aboveground part/the height) was determined. Groups each consisting of 6 plants were subjected to the test, and the test was repeated 4 times.
as §1
The density (the fresh weight of the aboveground part/the height) of the test groups was indicated as the rate of change (%), relative to the density of the control group.

Zea mays [2] = test: Cultivation of Zea mays from seeds coated with tryptophan and reduced glutathione under salt stress conditions (Comparative Example 2); details: salt stress (NaCl 6.0 g/l soil); 3 weeks after seeding; Trp 0.225 g and/or GSH 1-75 g per MT-seeds; FIG. 15
Protocol: Dent corn seeds (100 g; the variety: Snow-dent “Otoha”) were coated with 800 μl of a coating solution containing 0.225 g of tryptophan per MT-seeds, 0, 1, 5, 15, or 75 g of reduced glutathione per MT-seeds, polyvinyl alcohol, and a coloring dye in water using a coater (SATEC).
Culture soil containing sodium chloride at 6.0 g/l of the soil was filled into 7.5-cm pots, and the coated dent corn seeds were seeded at 1 grain/pot. Cultivation was performed in a glass greenhouse, and inspection was performed 21 days after seeding. The fresh weight of the aboveground part was measured. The test was repeated 9 times, and the average was determined.
The fresh weight of the aboveground part measured for the test groups treated with different amounts of tryptophan and reduced glutathione was indicated as the rate of change (%), relative to that of the test group (the control group) treated with a coating solution not containing tryptophan or reduced glutathione.

soybean = test: Cultivation of soybean from coated seeds under salt stress conditions (Example 6); details: 3 weeks after seeding, fresh weight of aboveground part
Protocol: Soybean seeds (100 g; the variety: Fukuyutaka) were coated with 800 μl of a coating solution containing tryptophan, oxidized glutathione, polyvinyl alcohol, and a coloring dye in water using a coater (SATEC). Coating was performed using either or both of tryptophan in an amount of 0 g, 0.045 g, 0.225 g, 0.45 g, or 5 g and oxidized glutathione in an amount of 0 g, 15 g, or 75 g per ton of seeds.
Culture soil containing sodium chloride at 1.0 g/l of the soil was filled into 7.5-cm pots, and the coated soybean seeds were seeded at 1 grain/pot. Cultivation was performed in a glass greenhouse, and inspection was performed 21 days after seeding. The fresh weight of the aboveground part, the density (the fresh weight of the aboveground part/the height), and the dry weight of the underground part were measured. The test was repeated 9 times, and the average was determined.
as §1, with “glutathione. […]” for “glutathione.”

Zea mays [3] = test: Field test of Zea mays, ear yield (Example 8); details: 0.25 g tryptophan and/or 75 g GSSG per ton of seeds
Protocol: As a control group, seeds without coating were prepared.
• Location: the Wilderen MAR field, the Kingdom of Belgium • Variety: Like IT • Date of seeding: Apr.
Cultivation was performed in accordance with the conventional fertilization management technique and pest management technique, and the yield was inspected. • Inspection of yield: 120 strains/group; the number of repetition: 4

wheat [4] = test: Cultivation of wheat from coated seeds under low-temperature stress conditions (Example 9); details: 6 weeks after seeding
Protocol: Wheat seeds (100 g; the variety: Yumechikara) were coated with 800 μl of a coating solution containing tryptophan, oxidized glutathione, polyvinyl alcohol, and a coloring dye in water using a coater (SATEC). Coating was performed using either or both of 5 g of tryptophan per MT-seeds and 75 g of oxidized glutathione per MT-seeds. Culture soil was filled into 7.5-cm pots, and the coated wheat seeds were seeded at 1 grain/pot. Cultivation was performed in a glass greenhouse before germination, the germinated plants were transferred to and cultivated in an artificial climate chamber with a diurnal period of 12 hours set at 10° C. and a nocturnal period of 12 hours set at 5° C., and inspection was performed 6 weeks after seeding. The dry weight of the aboveground part and the dry weight of the underground part were measured. The test was repeated 8 times, and the average was determined.
In the table, “%” indicates a value calculated relative to the weight without treatment, which is designated as 100%. […] With the use of glutathione in combination with tryptophan, in addition, the dry weight of the aboveground part was increased by 17% and the dry weight of the underground part was increased by 24%, relative to the control group. Such increase was significant. […] As described above, use of glutathione in combination with tryptophan would exert effects of promoting the healthy growth under low-temperature stress conditions.

wheat [5] = test: Cultivation of wheat from coated seeds under salt stress conditions (Example 4); details: fresh weight of aboveground part
Protocol: Wheat seeds (100 g; the variety: Yumechikara) were coated with 800 μl of a coating solution containing tryptophan, oxidized glutathione, polyvinyl alcohol, and a coloring dye in water using a coater (SATEC). Coating was performed using either or both of tryptophan in an amount of 0 g, 0.225 g, 2.25 g, 5 g, 10 g, or 50 g and oxidized glutathione in an amount of 0 g, 15 g, or 300 g per ton of seeds.
Culture soil containing sodium chloride at 4.0 g/l of the soil was filled into 7.5-cm pots, and the coated wheat seeds were seeded at 1 grain/pot. Cultivation was performed in a glass greenhouse, and inspection was performed 16 days after seeding. The height and the fresh weight of the aboveground part were measured, and the density (the fresh weight of the aboveground part/the height) was determined. The test was repeated 9 times, and the average was determined.
as §1, with “glutathione. […]” for “glutathione.”

Zea mays [6] = test: Cultivation of Zea mays from coated seeds under non-stress conditions (Example 1); details: 3 weeks after seeding
Protocol: Dent corn seeds (100 g; the variety: Snow-dent “Otoha”) were coated with 800 μl of a coating solution containing tryptophan, oxidized glutathione, polyvinyl alcohol, and a coloring dye in water using a coater (SATEC). Coating was performed using either or both of tryptophan in an amount of 0 g, 0.045 g, 0.1225 g, 0.45 g, 5 g, or 50 g and oxidized glutathione in an amount of 0 g, 3 g, 15 g, 150 g, or 300 g per ton of seeds.
Culture soil was filled into 12-cm vinyl pots, and the coated dent corn seeds were seeded at 4 grains/pot. After germination, a differently grown strain was thinned to retain 3 strains in a pot. Cultivation was performed in a glass greenhouse, and inspection was performed 21 days after seeding. The height and the fresh weight of the aboveground part were measured, and the density (the fresh weight of the aboveground part/the height) was determined. The test was repeated 6 times, and the average was determined.
as §1, with “glutathione. […]” for “glutathione.”

Zea mays [7] = test: Cultivation of Zea mays from coated seeds under salt stress conditions (Example 2); details: 3 weeks after seeding, fresh weight of aboveground part
Protocol: Dent corn seeds (100 g; the variety: Snow-dent “Otoha”) were coated with 800 μl of a coating solution containing tryptophan, oxidized glutathione, polyvinyl alcohol, and a coloring dye in water using a coater (SATEC). Coating was performed using either or both of tryptophan in an amount of 0 g, 0.009 g, 0.045 g, 0.1225 g, 0.225 g, 0.45 g, or 5 g and oxidized glutathione in an amount of 0 g, 15 g, or 75 g per ton of seeds.
Culture soil containing sodium chloride at 6.0 g/l of the soil was filled into 7.5-cm pots, and the coated dent corn seeds were seeded at 1 grain/pot. Cultivation was performed in a glass greenhouse, and inspection was performed 21 days after seeding. The height, the fresh weight of the aboveground part, and the number of leaves were measured, and the density (the fresh weight of the aboveground part/the height) was determined. The test was repeated 9 times, and the average was determined.
The rates of changes (%) in the height, the number of leaves, the fresh weight of the aboveground part, and the density (the fresh weight of the aboveground part/the height) measured or determined for the test groups, relative to those of the control group were determined.

Zea mays [8] = test: Cultivation of Zea mays from seeds coated with tryptophan and reduced glutathione under non-stress conditions (Comparative Example 1); details: 3 weeks after seeding, Trp 0.225 g and/or GSH 1-75 g per MT-seeds, FIG. 14
Protocol: Dent corn seeds (100 g; the variety: Snow-dent “Otoha”) were coated with 800 μl of a coating solution containing 0.225 g of tryptophan per ton of seeds (i.e., MT-seeds), 0, 1, 5, 15, or 75 g of reduced glutathione per MT-seeds, polyvinyl alcohol, and a coloring dye in water using a coater (SATEC).
Culture soil was filled into 12-cm vinyl pots, and the coated dent corn seeds were seeded at 4 grains/pot. After germination, a differently grown strain was thinned to retain 3 strains in a pot. Cultivation was performed in a glass greenhouse, and inspection was performed 21 days after seeding. The fresh weight of the aboveground part was measured. The test was repeated 6 times, and the average was determined.

[9] = low-temperature stress (10° C./5° C.), Trp 5 g and/or GSSG 75 g per MT-seeds
[10] = low-temperature stress, Trp 5 g and/or GSSG 75 g per MT-seeds

N[C@@H](Cc1c[nH]c2ccccc12)C(=O)O [tryptophan, L-tryptophan]
effects of promoting the initial growth (rice): Effects of promoting the initial growth were attained to some extent | effects of promoting the initial growth (wheat [1]): No effects of promoting the initial growth were attained | rate of change in the fresh weight of the aboveground part relative to control group (Zea mays [2]): 1% | effects of promoting the initial growth (soybean): No effects of promoting the initial growth were attained | ear yield relative to the control group without coating (100%) (Zea mays [3]; FIG. 16): 100.4% | increase in the ear yield (Zea mays [3]; relative to control group): An increase was not observed in the yield | Dry weight of aboveground part (wheat [4]; [9]): 0.24 g | Dry weight of underground part (wheat [4]; [9]): 0.08 g | effects of promoting the initial growth (wheat [4]; low-temperature stress): not observed | Dry weight of aboveground part, relative to without treatment (100%) (wheat [4]; [10]): 97% | Dry weight of underground part, relative to without treatment (100%) (wheat [4]; [10]): 101% | effects of promoting the initial growth (wheat [5]): No effects of promoting the initial growth were attained | increase in the fresh weight of the aboveground part compared with no treatment (Zea mays [6]; either or both of 0.1225 g tryptophan and 150 g GSSG per ton of seeds): 3% | effects of promoting the initial growth (Zea mays [6]; fresh weight of aboveground part): No effects of promoting the initial growth were attained | effects of promoting the initial growth (Zea mays [7]): No effects of promoting the initial growth were attained | rate of change in the fresh weight of the aboveground part relative to control group (Zea mays [8]): 4%
